The target of the experiment is T1, Nitric oxide synthase 3 (Homo sapiens) (UniProt P29474).
T1 sequence (whole entry): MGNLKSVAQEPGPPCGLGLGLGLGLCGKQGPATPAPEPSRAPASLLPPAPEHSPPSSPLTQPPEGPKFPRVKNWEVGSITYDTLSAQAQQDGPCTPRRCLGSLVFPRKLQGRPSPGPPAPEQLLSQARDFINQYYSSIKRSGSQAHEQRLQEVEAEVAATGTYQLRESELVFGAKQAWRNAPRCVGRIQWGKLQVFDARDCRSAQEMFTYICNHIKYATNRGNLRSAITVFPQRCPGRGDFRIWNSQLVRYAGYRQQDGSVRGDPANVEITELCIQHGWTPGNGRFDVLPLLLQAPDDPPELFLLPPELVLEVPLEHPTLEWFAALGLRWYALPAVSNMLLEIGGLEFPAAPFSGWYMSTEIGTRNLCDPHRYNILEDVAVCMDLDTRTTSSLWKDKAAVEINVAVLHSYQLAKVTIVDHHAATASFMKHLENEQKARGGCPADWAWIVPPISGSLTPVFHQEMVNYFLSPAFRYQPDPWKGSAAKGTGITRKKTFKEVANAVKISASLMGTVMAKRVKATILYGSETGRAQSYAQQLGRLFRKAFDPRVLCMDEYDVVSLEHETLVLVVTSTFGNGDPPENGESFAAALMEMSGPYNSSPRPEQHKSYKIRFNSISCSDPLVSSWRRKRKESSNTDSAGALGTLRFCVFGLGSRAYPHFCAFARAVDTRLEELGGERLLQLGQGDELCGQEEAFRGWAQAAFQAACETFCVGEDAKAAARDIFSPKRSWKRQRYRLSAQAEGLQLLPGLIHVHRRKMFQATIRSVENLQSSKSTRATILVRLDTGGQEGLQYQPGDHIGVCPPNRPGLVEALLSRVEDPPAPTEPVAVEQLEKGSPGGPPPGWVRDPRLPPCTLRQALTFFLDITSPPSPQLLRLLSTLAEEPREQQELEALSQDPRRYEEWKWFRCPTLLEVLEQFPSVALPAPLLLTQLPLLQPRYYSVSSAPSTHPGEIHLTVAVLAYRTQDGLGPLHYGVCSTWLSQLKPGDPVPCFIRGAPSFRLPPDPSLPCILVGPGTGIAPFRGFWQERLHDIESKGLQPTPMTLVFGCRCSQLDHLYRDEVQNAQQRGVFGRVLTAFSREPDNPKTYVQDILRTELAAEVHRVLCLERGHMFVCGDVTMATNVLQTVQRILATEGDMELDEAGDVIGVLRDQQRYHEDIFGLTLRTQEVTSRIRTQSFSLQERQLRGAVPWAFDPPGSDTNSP
The experiment in a line: Activation of eNOS activity in cisplatin-treated HUVEC cells assessed as increase in eNOS phosphorylation at Ser1177 residue at 30 uM measured after 5 to 60 mins by Western blot analysis. The class given is cell-based. To be noted: filed as activator, time 5-60 min.

Structures are written as SMILES. Active and inactive are the calls of the source. The rule behind the calls is not given here.

With `C=C1CC[C@@H]2[C@](C)(CO)[C@H](O)CC[C@@]2(C)[C@@H]1C/C=C1/C(=O)OC[C@H]1O` [ANDROGRAPHOLIDE], the result was Active.
